# Marks after values point to notes of the source that are not given here.
# Assays:
# Escherichia coli = system: Escherichia coli; design: method as in PMID 28789896, PMID 31303986, PMID 33369262; conditions: previously reported; cited from earlier work
# [1] = system: Staphylococcus epidermidis; design: method as in PMID 28789896, PMID 31303986, PMID 33369262; conditions: previously reported; cited from earlier work
# Mycoplasma pneumoniae FH [2] = experiment: Biofilm assay (crystal violet, absorbance at 550 nm), strain FH; conditions: initial 10^5 CFU/mL; for Effect in the biofilm assay: 0% CO2, up to 30 μmol/L; for Concentration with statistically significant effect in the biofilm assay: 0% CO2, 6-8 days at 37°C, p < 0.005, Shirley-Williams test
# [3] = system: M. pneumoniae strains FH, M52, Mac, Bru, and M129-B7; experiment: Propidium iodide (PI) uptake assay, membrane disruption; assay type: cell-based, Mycoplasma pneumoniae; conditions: 10 μmol/L AMP, PI 5 μg/mL in PBS, triplicate
# Protocol: We performed the PI uptake assays based on the previously described method with modification for M. pneumoniae. M. pneumoniae strains FH, M52, Mac, Bru, and M129-B7 were cultured as described above. Briefly, the 90 mL culture was done in PPLO-based medium for 6 days to observe the medium color change from red to yellow. The mycoplasma in the culture medium was centrifuged at 11,740g for 30 min at 4°C, and the precipitation was suspended in 20 mL phosphate buffered saline (PBS) by passing through a 60 mm-length 25-gauge needle (Top Corporation, Tokyo, Japan) three times. The suspension was centrifuged again at 11,740g for 30 min at 4°C, and 2.25 mL PBS was added to the precipitation. The 2× mycoplasma suspension was prepared by passing through a 60 mm-length 25-gauge needle five times. When using heat-killed M. pneumoniae (HKMp), the 2× suspension was heated at 95°C for 10 min. The 2× PI assay reaction mix based on PBS containing 20 μmol/L of an antimicrobial peptide or saline, and 10 μg/mL PI (Dojindo, Tokyo, Japan). Each assay was performed with a 96-well black flat-bottomed plate (PerkinElmer, Waltham, MA, USA) using a final cell volume of 100 μL prepared by mixing 2× mycoplasma suspension and 2× PI assay reaction mix at 1:1 in volume ratio. The intercalation fluorescence of PI was measured by using an Infinite 200 Pro F Plex microplate reader (Tecan, Zürich, Switzerland) every 2 min, with an excitation filter at 535 nm (half width: 25 nm) and an emission filter at 620 nm (half width: 20 nm). The averages and standard deviations of the fluorescent intensities was calculated, and normalised by an average fluorescence between 10 and 20 min of HKMp as 100% relative fluorescence, and by a minimum average fluorescence between 0 and 20 min of whole data as 0% relative fluorescence.
# Mycoplasma pneumoniae FH [4] = experiment: Killing assay, strain FH; conditions: 30 μmol/L AMP, 3 days; for Killing assay result compared with saline: Welch's t test, p < 0.005; for Cell numbers (CFU/mL) after treatment with antimicrobial peptides, killing assay: initial 10^6 CFU/mL, triplicate, mean, saline 3.59×10^6
# Pseudomonas aeruginosa = system: Pseudomonas aeruginosa; design: method as in PMID 28789896, PMID 31303986, PMID 33369262; conditions: previously reported; cited from earlier work
# Staphylococcus aureus = system: Staphylococcus aureus; design: method as in PMID 28789896, PMID 31303986, PMID 33369262; conditions: previously reported; cited from earlier work
# [5] = previously reported; cited from earlier work
# Mycoplasma pneumoniae FH [6] = experiment: Colorimetric assay (absorbance at 560 nm), strain FH; conditions: initial 10^5 CFU/mL, 0% CO2, up to 30 μmol/L
# [7] = system: Mycoplasma pneumoniae M129-B7; experiment: Colorimetric and biofilm assays, strain M129-B7; assay type: cell-based; conditions: strain M129-B7; biofilm assay; p < 0.005
# [8] = system: Mycoplasma pneumoniae Mac; experiment: Colorimetric and biofilm assays, strain Mac; conditions: biofilm assay, p < 0.005
# [9] = system: Mycoplasma pneumoniae M52; experiment: Colorimetric and biofilm assays, strain M52; conditions: up to 30 μmol/L, Shirley-Williams test
# [10] = system: Mycoplasma pneumoniae Mac; experiment: Killing assay, strain Mac; conditions: AMP 30 μmol/L, 3 days, initial 10^6 CFU/mL, triplicate, mean, saline 4.19×10^6
# [11] = system: Mycoplasma pneumoniae M52; experiment: Killing assay, strain M52; conditions: AMP 30 μmol/L, 3 days, initial 10^6 CFU/mL, triplicate, mean, saline 3.62×10^6
# [12] = system: Mycoplasma pneumoniae Bru; experiment: Killing assay, strain Bru; conditions: AMP 30 μmol/L, 3 days, initial 10^6 CFU/mL, triplicate, mean, saline 3.48×10^6
# [13] = system: Mycoplasma pneumoniae Bru; experiment: Colorimetric and biofilm assays, strain Bru; conditions: biofilm assay, p < 0.005
# [14] = system: Mycoplasma pneumoniae M129-B7; experiment: Killing assay, strain M129-B7; conditions: AMP 30 μmol/L, 3 days, initial 10^6 CFU/mL, triplicate, mean, saline 3.79×10^6
# [15] = five strains, read every 2 min up to 20 min
# [16] = strains FH, M129-B7, and M52, up to 20 min
substance,measurement,setting,value
"H-KKKLAKLKLGAKLKLKGKLGA-NH2 [Random, rationally designed AMP, helical structure and positions of positively charged lysine residues]","MIC, Gram-negative, E. c.",Escherichia coli,12.5 µM
same,"MIC, Gram-positive, S. e",[1],6.25 µM
same,Effect in the biofilm assay,Mycoplasma pneumoniae FH [2],no difference
same,PI fluorescence compared with live Mp without peptide,[3]; [15],fluorescence of live Mp without any peptides were higher
same,Killing assay result compared with saline,Mycoplasma pneumoniae FH [4],limited influence on the growth
same,"Cell numbers (CFU/mL) after treatment with antimicrobial peptides, killing assay",Mycoplasma pneumoniae FH [4],4.93×10^6 CFU/mL
same,"MIC, Gram-negative, P. a.",Pseudomonas aeruginosa,3.13 µM
same,"MIC, Gram-positive, S. a.",Staphylococcus aureus,100 µM
"H-GIGKFLHSUKKFGKUFV-NH2 [17base-Aib, Mag2-17base derivative with 2-aminoisobutyric acid (Aib) insertions]","MIC, Gram-negative, E. c.",Escherichia coli,3.13 µM
same,"MIC, Gram-positive, S. e",[1],3.13 µM
same,Effect in the biofilm assay,Mycoplasma pneumoniae FH [2],no difference
same,PI fluorescence compared with live Mp without peptide,[3]; [15],slight fluorescent shift
same,PI fluorescence compared with live Mp without peptide,[3]; [16],fluorescence of live Mp without any peptides were higher
same,Killing assay result compared with saline,Mycoplasma pneumoniae FH [4],limited influence on the growth
same,"Cell numbers (CFU/mL) after treatment with antimicrobial peptides, killing assay",Mycoplasma pneumoniae FH [4],3.75×10^6 CFU/mL
same,"MIC, Gram-negative, P. a.",Pseudomonas aeruginosa,1.56 µM
same,Haemolysis (concentration with haemolytic effect),[5],>100 µmol/L
same,"MIC, Gram-positive, S. a.",Staphylococcus aureus,12.5 µM
"H-GIGKFLHSAKKFGKAFVGEIMNS-NH2 [Mag2, magainin 2]","MIC, Gram-negative, E. c.",Escherichia coli,3.13 µM
same,"MIC, Gram-positive, S. e",[1],25 µM
same,Concentration with statistically significant effect in the biofilm assay,Mycoplasma pneumoniae FH [2],30 µmol/L
same,PI fluorescence compared with live Mp without peptide,[3]; [15],fluorescence of live Mp without any peptides were higher
same,Killing assay result compared with saline,Mycoplasma pneumoniae FH [4],limited influence on the growth
same,"Cell numbers (CFU/mL) after treatment with antimicrobial peptides, killing assay",Mycoplasma pneumoniae FH [4],4.06×10^6 CFU/mL
same,"MIC, Gram-negative, P. a.",Pseudomonas aeruginosa,12.5 µM
same,"MIC, Gram-positive, S. a.",Staphylococcus aureus,100 µM
same,Effect in the colorimetric assay,Mycoplasma pneumoniae FH [6],no difference
H-GIGKFLHSAKKFGKAFV-NH2 [Mag2-17base],"MIC, Gram-negative, E. c.",Escherichia coli,3.13 µM
same,"MIC, Gram-positive, S. e",[1],12.5 µM
same,Effect in the biofilm assay,Mycoplasma pneumoniae FH [2],no difference
same,PI fluorescence compared with live Mp without peptide,[3]; [15],fluorescence of live Mp without any peptides were higher
same,Killing assay result compared with saline,Mycoplasma pneumoniae FH [4],limited influence on the growth
same,"Cell numbers (CFU/mL) after treatment with antimicrobial peptides, killing assay",Mycoplasma pneumoniae FH [4],4.86×10^6 CFU/mL
same,"MIC, Gram-negative, P. a.",Pseudomonas aeruginosa,3.13 µM
same,Haemolysis (concentration with haemolytic effect),[5],>100 µmol/L
same,"MIC, Gram-positive, S. a.",Staphylococcus aureus,50 µM
"H-GIGKFLHSZKKFGKZFV-NH2 [17base-Ac6c, Mag2-17base derivative with 1-aminocyclohexylcarboxylic acid (Ac6c) insertions]","MIC, Gram-negative, E. c.",Escherichia coli,3.13 µM
same,"MIC, Gram-positive, S. e",[1],3.13 µM
same,Concentration with statistically significant effect in the biofilm assay,Mycoplasma pneumoniae FH [2],30 µmol/L
same,PI fluorescence compared with live Mp without peptide,[3]; [15],the fluorescence arose
same,Killing assay result compared with saline,Mycoplasma pneumoniae FH [4],significant difference
same,"Cell numbers (CFU/mL) after treatment with antimicrobial peptides, killing assay",Mycoplasma pneumoniae FH [4],1.11×10^6 CFU/mL
same,"MIC, Gram-negative, P. a.",Pseudomonas aeruginosa,6.25 µM
same,Haemolysis (concentration with haemolytic effect),[5],3 µmol/L
same,"MIC, Gram-positive, S. a.",Staphylococcus aureus,3.13 µM
"H-GIKKFLKSZKKFVKZFK-NH2 [17base-Hybrid, Mag2-17base derivative with Ac6c and lysine insertions]","MIC, Gram-negative, E. c.",Escherichia coli,3.13 µM
same,"MIC, Gram-positive, S. e",[1],1.56 µM
same,Concentration with statistically significant effect in the biofilm assay,[7],≤ 30 µmol/L
same,Concentration with statistically significant effect in the biofilm assay,[8],≤ 30 µmol/L
same,Effect in the biofilm assay,[9],slight drop of biofilm production
same,"Titre (CFU/mL), killing assay",[10],5.80×10^4 ^b CFU/mL
same,"Titre (CFU/mL), killing assay",[11],1.16×10^5 ^b CFU/mL
same,Concentration with statistically significant effect in the biofilm assay,Mycoplasma pneumoniae FH [2],8 µmol/L
same,PI fluorescence compared with live Mp without peptide,[3]; [15],the fluorescence arose
same,"Titre (CFU/mL), killing assay",[12],1.46×10^5 ^b CFU/mL
same,Killing assay result compared with saline,Mycoplasma pneumoniae FH [4],significant difference
same,"Cell numbers (CFU/mL) after treatment with antimicrobial peptides, killing assay",Mycoplasma pneumoniae FH [4],3.50×10^5 CFU/mL
same,"MIC, Gram-negative, P. a.",Pseudomonas aeruginosa,3.13 µM
same,Concentration with statistically significant effect in the biofilm assay,[13],≤ 30 µmol/L
same,"Titre (CFU/mL), killing assay",[14],2.21×10^5 ^b CFU/mL
same,"MIC, Gram-positive, S. a.",Staphylococcus aureus,3.13 µM
"H-KLLKKAGKLLKKAGKLLKKAG-NH2 [Stripe, rationally designed AMP, helical structure and positions of positively charged lysine residues]","MIC, Gram-negative, E. c.",Escherichia coli,3.13 µM
same,"MIC, Gram-positive, S. e",[1],1.56 µM
same,Effect in the biofilm assay,Mycoplasma pneumoniae FH [2],no difference
same,PI fluorescence compared with live Mp without peptide,[3]; [16],fluorescence of live Mp without any peptides were higher
same,Killing assay result compared with saline,Mycoplasma pneumoniae FH [4],limited influence on the growth
same,"Cell numbers (CFU/mL) after treatment with antimicrobial peptides, killing assay",Mycoplasma pneumoniae FH [4],3.71×10^6 CFU/mL
same,"MIC, Gram-negative, P. a.",Pseudomonas aeruginosa,1.56 µM
same,"MIC, Gram-positive, S. a.",Staphylococcus aureus,12.5 µM

# From article PMC8786148, “The effects of magainin 2-derived and rationally designed antimicrobial peptides on Mycoplasma pneumoniae” (PLoS ONE, 2022)
